How the values were obtained:
[1] = Optical characteristics (UV-Vis absorption and fluorescence spectroscopy); type: physicochemical; details: physiological conditions
Method: UV-visible spectra were obtained with Shimadzu UV-1800. A fluorescence spectroscopic test was performed with Hitachi F7000.
The slit width in the fluorescence measurement was 1 nm for both excitation and light emission. The photomultiplier tube voltage was 400 V. The area under the light emission spectrum of the test sample and the spectral area of the standard sample were determined and calculated by the following equation to determine a relative fluorescence quantum yield (Φfl).
The optical characteristics of the probe (1 μM) were examined in a 0.1 M sodium phosphate buffer containing 0.1% DMSO as a co-solvent.
Therefore, it is expected that HMRIef in which iodine is introduced into the xanthene ring site of HMRef is also placed in the same equilibrium. […] In addition, a fluorescence spectrum was also measured. […]
FIG. 3(a) illustrates the chemical structure and optical characteristics of HMRIef. FIG. 3(b) illustrates the measurement results of the absorption spectrum and fluorescence spectrum of HMRIef (measurement was performed in a 0.1 M sodium phosphate buffer containing 0.1% DMSO as a co-solvent. dye concentration: 1 μM (absorption) or 10 μM (fluorescence)). FIG. 3(c) illustrates the measurement results of the absorption spectra measured in 0.1 M sodium phosphate buffers with various pH containing 0.1% DMSO as a co-solvent (dye concentration: 1 μM). […]

[2] = Detection of singlet oxygen by near infrared spectroscopy; type: physicochemical; details: PBS pH 7.4, 0.1% DMSO, dye 1 μM, 508 nm excitation; mean±S.D.
Method: Singlet oxygen was detected by measuring ^1O2 light emission near 1,270 nm by laser irradiation using a near infrared emission spectrometer (Fluorolog-3, Horiba, Japan). A dye was dissolved in phosphate buffered saline (PBS) containing 0.1% DMSO as a co-solvent and irradiation was performed with light at a wavelength of 508 nm. In order to calculate a ^1O2 quantum yield, the light emission signal was integrated for each wavelength for 7 seconds. A singlet oxygen generation quantum yield was calculated using Rose bengal (0.75) (DeRosa, M. C. & Crutchley, R. J. Photosensitized singlet oxygen and its applications. Coordination Chemistry Reviews 233-234, 351-371, doi:10.1016/S0010-8545(02)00034-6 (2002)) in PBS as a reference.
Whether HMRIef had photosensitizing ability was examined. In the examination, the singlet oxygen generation ability was evaluated by the light emission intensity at […] under light irradiation conditions using the property that singlet oxygen (^1O2) generated by energy transfer from the photoexcited probe to oxygen molecules emits near-infrared light having a peak top near 1,270 nm.
The right view of FIG. 6 illustrates the light emission spectrum of ^1O2 by 508 nm laser excitation. The dashed line was taken as the background. The spectra were measured in PBS with pH 7.4 containing 0.1% DMSO as a co-solvent (dye concentration: 1 μM). […]

[3] = in PBS, used as reference; cited from earlier work

O=c1ccc2c(-c3ccccc3CO)c3ccc(NCC(F)(F)F)cc3oc-2c1 [HMRef]
fluorescence quantum yield (Φfl) [1]: 0.78 | singlet oxygen generation quantum yield [2]: 0.05±0.14

O=C([O-])c1c(Cl)c(Cl)c(Cl)c(Cl)c1-c1c2cc(I)c(=O)c(I)c-2oc2c(I)c([O-])c(I)cc12.[Na+].[Na+] [Rose bengal]
singlet oxygen generation quantum yield (reference value) [3]: 0.75

From patent publication US20240316202A1, “NOVEL PHOTOSENSITIZER” (The University of Tokyo, priority 2020, published 2024)
